From patent US11753407B2, “Compounds for treating spinal muscular atrophy” (PTC Therapeutics, Inc., priority 2012, dated 2023) come the findings set out here.

The test system of data set [1] is SMN2 minigene mRNA (SMN2-A minigene) in HEK293H cells. As to the kind of experiment: SMN2 minigene mRNA splicing RT-qPCR assay in cultured cells. The format is cell-based, human. The note with it: Homo sapiens, HEK293-H; concentration increasing full length SMN2 mRNA 1.5-fold relative to vehicle-treated cells; HEK293H cells with SMN2-A minigene, 24 hours, 7-point concentration data; read-out: EC1.5x for production of full length SMN2 mRNA. The procedure, abridged:
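EC1.5× = concentration raising full-length SMN2 minigene mRNA 1.5-fold over vehicle, from 7-point curves in duplicate. Stably transfected HEK293H cells exposed 24 h at 37 °C; lysates assayed by multiplex RT-qPCR, minigene FL signal normalized to GAPDH via modified ΔΔCt.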

In data set [2] the test system is Smn protein in SMA patient fibroblast cells (GM03813). The data set is described as follows: Smn protein assay in cultured cells (SMN HTRF). Format: cell-based, human. Particulars: SMA patient fibroblast cells, 48 hours; for EC1.5x for Smn protein expression: 7-point concentration curve, SMN HTRF, concentration producing 1.5 times Smn protein vs DMSO vehicle control; for maximum fold (Fold) increase of Smn protein: 7-point concentration data, fold relative to vehicle control. The procedure, abridged: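 Smn protein quantified by HTRF with anti-SMN d2/kryptate pair, 665/620 nm ratio blank-corrected, in RIPA lysates of GM03813 fibroblasts after 48 h compound exposure (7 concentrations, 3.16-fold steps, triplicates). Values: concentration producing 1.5× vehicle Smn level, and maximal fold increase.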

What is called melting point is the temperature, or range, at which the solid turns liquid.

Regarding `Cc1cn2nc(-c3cc(=O)n4cc(N5CCN(CCO)[C@H](C)C5)ccc4n3)cc2c(C)n1` [Compound 532, 2-(4,6-dimethylpyrazolo[1,5-a]pyrazin-2-yl)-7-[(3R)-4-(2-hydroxyethyl)-3-methylpiperazin-1-yl]-4H-pyrido[1,2-a]pyrimidin-4-one], the melting point fell in the range of 238 to 240 °C. Further, in data set [1], the EC (1.5-fold increase) is less than 0.1 µM. Besides, in data set [2], the “EC1.5x for Smn protein expression” value was “**** (an EC1.5x≤0.3 μM is indicated by four stars (****))” and the “maximum fold (Fold) increase of Smn protein” value (“maximum fold (Fold) increase” below) is listed as “***** (a fold increase >1.65 is indicated by five stars (*****))”.

The compound `COCCN1CCN(c2ccc3nc(-c4cc(Cl)c5nc(C)cn5c4)cc(=O)n3c2)C[C@@H]1C` [Compound 533, 2-(8-chloro-2-methylimidazo[1,2-a]pyridin-6-yl)-7-[(3S)-4-(2-methoxyethyl)-3-methylpiperazin-1-yl]-4H-pyrido[1,2-a]pyrimidin-4-one] showed a melting point of 179 to 183 °C. Moreover, the EC (1.5-fold increase) in data set [1] is less than 0.1 µM. Further, in data set [2], the “EC1.5x for Smn protein expression” value was “*** (an EC1.5× between >0.3 μM and ≤1 μM is indicated by three stars (***))”; the “maximum fold (Fold) increase” value is “***** (a fold increase >1.65 is indicated by five stars (*****))”.

Regarding `Cc1cn2cc(-c3cc(=O)n4cc(N5CCN(CCOCCO)[C@@H](C)C5)ccc4n3)cc(Cl)c2n1` [Compound 534, 2-(8-chloro-2-methylimidazo[1,2-a]pyridin-6-yl)-7-{(3S)-4-[2-(2-hydroxyethoxy)ethyl]-3-methylpiperazin-1-yl}-4H-pyrido[1,2-a]pyrimidin-4-one], the melting point lay in the range of 201 to 205 °C. The EC (1.5-fold increase) in data set [1] is less than 0.1 µM. In data set [2], the “EC1.5x for Smn protein expression” value is “**** (an EC1.5x≤0.3 μM is indicated by four stars (****))” and the “maximum fold (Fold) increase” value is listed as “***** (a fold increase >1.65 is indicated by five stars (*****))”.

On to `Cc1cn2cc(-c3cc(=O)n4cc(N5CCN(C6CC6)[C@@H](C)C5)ccc4n3)cc(Cl)c2n1` [Compound 535, 2-(8-chloro-2-methylimidazo[1,2-a]pyridin-6-yl)-7-[(3S)-4-cyclopropyl-3-methylpiperazin-1-yl]-4H-pyrido[1,2-a]pyrimidin-4-one], for which the melting point lay in the range of 253 to 257 °C. The EC (1.5-fold increase) in data set [1] is less than 0.1 µM. Further, in data set [2], the “EC1.5x for Smn protein expression” value is “*** (an EC1.5× between >0.3 μM and ≤1 μM is indicated by three stars (***))”; the “maximum fold (Fold) increase” value is reported as “***** (a fold increase >1.65 is indicated by five stars (*****))”.

Turning to `Cc1cn2cc(-c3cc(=O)n4cc(N5CCN(C6CCC6)[C@@H](C)C5)ccc4n3)cc(Cl)c2n1` [Compound 536, 2-(8-chloro-2-methylimidazo[1,2-a]pyridin-6-yl)-7-[(3S)-4-cyclobutyl-3-methylpiperazin-1-yl]-4H-pyrido[1,2-a]pyrimidin-4-one], the melting point was in the range of 228 to 232 °C. Further, the EC (1.5-fold increase) in data set [1] was less than 0.1 µM. Further, in data set [2], the “EC1.5x for Smn protein expression” value is reported as “**** (an EC1.5x≤0.3 μM is indicated by four stars (****))”; the “maximum fold (Fold) increase” value was “**** (a fold increase between >1.5 and ≤1.65 is indicated by four stars (****))”.

`Cc1cn2cc(-c3cc(=O)n4cc(N5CCN(CCO)[C@@H](C)C5)ccc4n3)cc(Cl)c2n1` [Compound 537, 2-(8-chloro-2-methylimidazo[1,2-a]pyridin-6-yl)-7-[(3S)-4-(2-hydroxyethyl)-3-methylpiperazin-1-yl]-4H-pyrido[1,2-a]pyrimidin-4-one] had a melting point of 228 to 234 °C. Besides, in data set [1], the EC (1.5-fold increase) was less than 0.1 µM. In data set [2], the “EC1.5x for Smn protein expression” value is reported as “**** (an EC1.5x≤0.3 μM is indicated by four stars (****))”; the “maximum fold (Fold) increase” value is “**** (a fold increase between >1.5 and ≤1.65 is indicated by four stars (****))”.

`COCCN1CCN(c2ccc3nc(-c4cc(F)c5nc(C)cn5c4)cc(=O)n3c2)C[C@@H]1C` [Compound 538, 2-(8-fluoro-2-methylimidazo[1,2-a]pyridin-6-yl)-7-[(3S)-4-(2-methoxyethyl)-3-methylpiperazin-1-yl]-4H-pyrido[1,2-a]pyrimidin-4-one] came in with a melting point of 215 to 219 °C. In addition, the EC (1.5-fold increase) in data set [1] is less than 0.1 µM. Further, in data set [2], the “EC1.5x for Smn protein expression” value is “*** (an EC1.5× between >0.3 μM and ≤1 μM is indicated by three stars (***))”; the “maximum fold (Fold) increase” value is “**** (a fold increase between >1.5 and ≤1.65 is indicated by four stars (****))”.

`Cc1cn2cc(-c3cc(=O)n4cc(N5CCN(CCO)[C@@H](C)C5)ccc4n3)cc(F)c2n1` [Compound 539, 2-(8-fluoro-2-methylimidazo[1,2-a]pyridin-6-yl)-7-[(3S)-4-(2-hydroxyethyl)-3-methylpiperazin-1-yl]-4H-pyrido[1,2-a]pyrimidin-4-one] came in with a melting point of 270 to 274 °C. Besides, in data set [1], the EC (1.5-fold increase) is less than 0.1 µM. Further, in data set [2], the “EC1.5x for Smn protein expression” value is “**** (an EC1.5x≤0.3 μM is indicated by four stars (****))”; the “maximum fold (Fold) increase” value is “**** (a fold increase between >1.5 and ≤1.65 is indicated by four stars (****))”.

`Cc1cn2cc(-c3cc(=O)n4cc(N5CCN(CCOCCO)[C@@H](C)C5)ccc4n3)cc(F)c2n1` [Compound 540, 2-(8-fluoro-2-methylimidazo[1,2-a]pyridin-6-yl)-7-{(3S)-4-[2-(2-hydroxyethoxy)ethyl]-3-methylpiperazin-1-yl}-4H-pyrido[1,2-a]pyrimidin-4-one] came in with a melting point of 175 to 181 °C. The EC (1.5-fold increase) in data set [1] was less than 0.1 µM. Also, the “maximum fold (Fold) increase” value in data set [2] is “*** (a fold increase between >1.35 and ≤1.5 is indicated by three stars (***))”.

On to `Cc1cn2cc(-c3cc(=O)n4cc(N5CCN(C(C)C)[C@@H](C)C5)ccc4n3)cc(F)c2n1` [Compound 541, 2-(8-fluoro-2-methylimidazo[1,2-a]pyridin-6-yl)-7-[(3S)-3-methyl-4-(propan-2-yl)piperazin-1-yl]-4H-pyrido[1,2-a]pyrimidin-4-one], for which the melting point was 191 to 194 °C. The EC (1.5-fold increase) in data set [1] lay in the range of 0.1 to 0.3 µM. Further, in data set [2], the “EC1.5x for Smn protein expression” value is “*** (an EC1.5× between >0.3 μM and ≤1 μM is indicated by three stars (***))”; the “maximum fold (Fold) increase” value is listed as “***** (a fold increase >1.65 is indicated by five stars (*****))”.

`Cc1cn2cc(-c3cc(=O)n4cc(N5CCN(C6CC6)[C@@H](C)C5)ccc4n3)cc(F)c2n1` [Compound 542, 7-[(3S)-4-cyclopropyl-3-methylpiperazin-1-yl]-2-(8-fluoro-2-methylimidazo[1,2-a]pyridin-6-yl)-4H-pyrido[1,2-a]pyrimidin-4-one]: the melting point lay within 242 to 246 °C. In addition, the EC (1.5-fold increase) in data set [1] was less than 0.1 µM. Further, in data set [2], the “EC1.5x for Smn protein expression” value is “*** (an EC1.5× between >0.3 μM and ≤1 μM is indicated by three stars (***))”; the “maximum fold (Fold) increase” value is listed as “***** (a fold increase >1.65 is indicated by five stars (*****))”.

With `Cc1cn2cc(-c3cc(=O)n4cc(N5CCN(C6CCC6)[C@@H](C)C5)ccc4n3)cc(F)c2n1` [Compound 543, 7-[(3S)-4-cyclobutyl-3-methylpiperazin-1-yl]-2-(8-fluoro-2-methylimidazo[1,2-a]pyridin-6-yl)-4H-pyrido[1,2-a]pyrimidin-4-one], the melting point was 264 to 267 °C. For the same compound, in data set [1], the EC (1.5-fold increase) was less than 0.1 µM. Further, in data set [2], the “EC1.5x for Smn protein expression” value is listed as “**** (an EC1.5x≤0.3 μM is indicated by four stars (****))” and the “maximum fold (Fold) increase” value is recorded as “***** (a fold increase >1.65 is indicated by five stars (*****))”.

`C[C@@H]1CN(c2ccc3nc(-c4ccc5c(cnn5C)c4)cc(=O)n3c2)CCN1` [Compound 545, 2-(1-methyl-1H-indazol-5-yl)-7-[(3R)-3-methylpiperazin-1-yl]-4H-pyrido[1,2-a]pyrimidin-4-one]: the melting point lay within 190 to 192 °C. The EC (1.5-fold increase) in data set [1] fell in the range of 0.1 to 0.3 µM. Moreover, in data set [2], the “EC1.5x for Smn protein expression” value is listed as “**** (an EC1.5x≤0.3 μM is indicated by four stars (****))” and the “maximum fold (Fold) increase” value is “***** (a fold increase >1.65 is indicated by five stars (*****))”.

`CCc1nc(C)cn2nc(-c3cc(=O)n4cc(N5CCNCC5)ccc4n3)cc12` [Compound 546, 2-(4-ethyl-6-methylpyrazolo[1,5-a]pyrazin-2-yl)-7-(piperazin-1-yl)-4H-pyrido[1,2-a]pyrimidin-4-one] registered a melting point of 230 to 233 °C. For the same compound, the EC (1.5-fold increase) in data set [1] is less than 0.1 µM. Besides, in data set [2], the “EC1.5x for Smn protein expression” value is listed as “**** (an EC1.5x≤0.3 μM is indicated by four stars (****))” and the “maximum fold (Fold) increase” value is on record as “***** (a fold increase >1.65 is indicated by five stars (*****))”.

Turning to `CCc1nc(C)cn2nc(-c3cc(=O)n4cc(N5CCN(C)CC5)ccc4n3)cc12` [Compound 547, 2-(4-ethyl-6-methylpyrazolo[1,5-a]pyrazin-2-yl)-7-(4-methylpiperazin-1-yl)-4H-pyrido[1,2-a]pyrimidin-4-one], the melting point fell in the range of 250 to 252 °C. In data set [1], the EC (1.5-fold increase) is less than 0.1 µM. For the same compound, in data set [2], the “EC1.5x for Smn protein expression” value is “**** (an EC1.5x≤0.3 μM is indicated by four stars (****))” and the “maximum fold (Fold) increase” value was “***** (a fold increase >1.65 is indicated by five stars (*****))”.
